Biological target: PD-1/PD-L1 (Homo sapiens (Human), UniProt Q9NZQ7)
Assay: PD-1/PD-L1 Homogeneous Time-Resolved Fluorescence (HTRF) Binding Assay
Settings: recombinant human PD-1 (3 nM) and PD-L1 (10 nM), 25° C., PBS pH 7.4
Method: Example A. PD-1/PD-L1 Homogeneous Time-Resolved Fluorescence (HTRF) Binding Assay
The assays were conducted in a standard black 384-well polystyrene plate with a final volume of 20 μL. Inhibitors were first serially diluted in DMSO and then added to the plate wells before the addition of other reaction components. The final concentration of DMSO in the assay was 1%. The assays were carried out at 25° C. in the PBS buffer (pH 7.4) with 0.05% Tween-20 and 0.1% BSA. Recombinant human PD-L1 protein (19-238) with a His-tag at the C-terminus was purchased from AcroBiosystems (PD1-H5229). Recombinant human PD-1 protein (25-167) with Fc tag at the C-terminus was also purchased from AcroBiosystems (PD1-H5257). PD-L1 and PD-1 proteins were diluted in the assay buffer and 10 μL was added to the plate well. Plates were centrifuged and proteins were preincubated with inhibitors for 40 minutes. The incubation was followed by the addition of 10 μL of HTRF detection buffer supplemented with Europium cryptate-labeled anti-human IgG (PerkinElmer-AD0212) specific for Fc and anti-His antibody conjugated to SureLight®-Allophycocyanin (APC, PerkinElmer-AD0059H). After centrifugation, the plate was incubated at 25° C. for 60 min. before reading on a PHERAstar FS plate reader (665 nm/620 nm ratio). Final concentrations in the assay were—3 nM PD1, 10 nM PD-L1, 1 nM europium anti-human IgG and 20 nM anti-His-Allophycocyanin. IC50 determination was performed by fitting the curve of percent control activity versus the log of the inhibitor concentration using the GraphPad Prism 5.0 software.

Sequence of PD-1/PD-L1 (Q9NZQ7 19-238): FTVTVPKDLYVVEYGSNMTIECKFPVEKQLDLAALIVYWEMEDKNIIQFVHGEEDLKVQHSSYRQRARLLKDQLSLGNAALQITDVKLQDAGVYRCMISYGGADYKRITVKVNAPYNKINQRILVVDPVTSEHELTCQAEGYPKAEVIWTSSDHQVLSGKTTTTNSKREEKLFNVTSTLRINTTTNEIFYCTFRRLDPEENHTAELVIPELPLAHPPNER

| SMILES | IC50 [nM] |
| --- | --- |
| Cc1c(NC(=O)c2nc3c(n2C)CCN(C(C)C)C3)cccc1-c1cccc(-c2nc3cc(CN4CC[C@H](C(=O)O)C4)cc(C#N)c3o2)c1C [Example 38, (S)-1-((7-cyano-2-(3′-(5-isopropyl-1-methyl-4,5,6,7-tetrahydro-1H-imidazo[4,5-c]pyridine-2-carboxamido)-2,2′-dimethylbiphenyl-3-yl)benzo[d]oxazol-5-yl)methyl)pyrrolidine-3-carboxylic acid] | ≤ 10 |
| Cc1c(NC(=O)c2nc3c(n2C)CCN(C2CC2)C3)cccc1-c1cccc(-c2nc3cc(CN4CC[C@H](C(=O)O)C4)cc(C#N)c3o2)c1C [Example 39, (S)-1-((7-cyano-2-(3′-(5-cyclopropyl-1-methyl-4,5,6,7-tetrahydro-1H-imidazo[4,5-c]pyridine-2-carboxamido)-2,2′-dimethylbiphenyl-3-yl)benzo[d]oxazol-5-yl)methyl)pyrrolidine-3-carboxylic acid] | ≤ 10 |
| Cc1c(NC(=O)c2nc3c(n2C)CCN(C2CC(F)(F)C2)C3)cccc1-c1cccc(-c2nc3cc(CN4CC[C@H](C(=O)O)C4)cc(C#N)c3o2)c1C [Example 40, (S)-1-((7-cyano-2-(3′-(5-(3,3-difluorocyclobutyl)-1-methyl-4,5,6,7-tetrahydro-1H-imidazo[4,5-c]pyridine-2-carboxamido)-2,2′-dimethylbiphenyl-3-yl)benzo[d]oxazol-5-yl)methyl)pyrrolidine-3-carboxylic acid] | 10 to 100 |
| Cc1c(NC(=O)c2nc3c(n2C)CCN(C)C3)cccc1-c1cccc(-c2nc3cc(CN(C)CCC(=O)O)cc(Cl)c3o2)c1C [Example 42, 3-(((7-chloro-2-(3′-(1,5-dimethyl-4,5,6,7-tetrahydro-1H-imidazo[4,5-c]pyridine-2-carboxamido)-2,2′-dimethylbiphenyl-3-yl)benzo[d]oxazol-5-yl)methyl)(methyl)amino) propanoic acid] | ≤ 10 |
| CNC1CCN(c2cccc(-c3cccc(-c4nc5cc(CN6CC[C@@H](C(=O)O)C6)cc(Cl)c5o4)c3C)c2Cl)CC1 [Example 43, (R)-1-((7-chloro-2-(2′-chloro-2-methyl-3′-(4-(methylamino)piperidin-1-yl)biphenyl-3-yl)benzo[d]oxazol-5-yl)methyl)pyrrolidine-3-carboxylic acid] | ≤ 10 |
| Cc1c(-c2nc3cc(CN4CC[C@@H](C(=O)O)C4)cc(Cl)c3o2)cccc1-c1cccc(N2CCC(NC3CC3)CC2)c1Cl [Example 44, (R)-1-((7-chloro-2-(2′-chloro-3′-(4-(cyclopropylamino)piperidin-1-yl)-2-methylbiphenyl-3-yl)benzo[d]oxazol-5-yl)methyl)pyrrolidine-3-carboxylic acid] | ≤ 10 |
| Cc1c(-c2nc3cc(CN4CC[C@@H](C(=O)O)C4)cc(Cl)c3o2)cccc1-c1cccc(N2CCC(N[C@H]3C[C@@H](O)C3)CC2)c1Cl [Example 45, (R)-1-((7-chloro-2-(2′-chloro-3′-(4-((1s,3s)-3-hydroxycyclobutylamino)piperidin-1-yl)-2-methylbiphenyl-3-yl)benzo[d]oxazol-5-yl)methyl)pyrrolidine-3-carboxylic acid] | ≤ 10 |
| Cc1c(-c2nc3cc(CN4CC[C@@H](C(=O)O)C4)cc(Cl)c3o2)cccc1-c1cccc(N2CCC(NCC3(CO)CCC3)CC2)c1Cl [Example 46, (R)-1-((7-chloro-2-(2′-chloro-3′-(4-((1-(hydroxymethyl)cyclobutyl)methylamino)piperidin-1-yl)-2-methylbiphenyl-3-yl)benzo[d]oxazol-5-yl)methyl)pyrrolidine-3-carboxylic acid] | ≤ 10 |
| Cc1c(-c2nc3cc(CN4CC[C@@H](C(=O)O)C4)cc(C#N)c3o2)cccc1-c1cccc(N2CCC(N[C@H]3C[C@@H](O)C3)CC2)c1Cl [Example 47, (R)-1-((2-(2′-chloro-3′-(4-((1s,3s)-3-hydroxycyclobutylamino)piperidin-1-yl)-2-methylbiphenyl-3-yl)-7-cyanobenzo[d]oxazol-5-yl)methyl)pyrrolidine-3-carboxylic acid] | ≤ 10 |

Results, then the compound that gave them:

| IC50 [nM] | SMILES |
| --- | --- |
| ≤ 10 | Cc1c(-c2nc3cc(CN4CC[C@@H](C(=O)O)C4)cc(Cl)c3o2)cccc1-c1cccc(Nc2nccc3cc(CN4CC[C@H](O)C4)cnc23)c1Cl [Example 29, (R)-1-((7-chloro-2-(2′-chloro-3′-(3-(((S)-3-hydroxypyrrolidin-1-yl)methyl)-1,7-naphthyridin-8-ylamino)-2-methylbiphenyl-3-yl)benzo[d]oxazol-5-yl)methyl)pyrrolidine-3-carboxylic acid] |
| ≤ 10 | Cc1c(-c2nc3cc(CN4CC[C@@H](C(=O)O)C4)cc(C#N)c3o2)cccc1-c1cccc(Nc2nccc3cc(CN4CC[C@H](O)C4)cnc23)c1Cl [Example 30, (R)-1-((2-(2′-chloro-3′-(3-(((S)-3-hydroxypyrrolidin-1-yl)methyl)-1,7-naphthyridin-8-ylamino)-2-methylbiphenyl-3-yl)-7-cyanobenzo[d]oxazol-5-yl)methyl)pyrrolidine-3-carboxylic acid] |
| ≤ 10 | Cc1c(-c2nc3cc(CN4CC[C@@H](C(=O)O)C4)cc(C#N)c3o2)cccc1-c1cccc(Nc2nccc3cc(CN4CCOC4=O)cnc23)c1Cl [Example 31, (R)-1-((2-(2′-chloro-2-methyl-3′-(3-((2-oxooxazolidin-3-yl)methyl)-1,7-naphthyridin-8-ylamino)biphenyl-3-yl)-7-cyanobenzo[d]oxazol-5-yl)methyl)pyrrolidine-3-carboxylic acid] |
| ≤ 10 | Cc1c(-c2nc3cc(CN4CC[C@H](C(=O)O)C4)cc(Cl)c3o2)cccc1-c1cccc(Nc2nccc3cc(CN4CC[C@H](O)C4)cnc23)c1Cl [Example 32, (S)-1-((7-chloro-2-(2′-chloro-3′-(3-(((S)-3-hydroxypyrrolidin-1-yl)methyl)-1,7-naphthyridin-8-ylamino)-2-methylbiphenyl-3-yl)benzo[d]oxazol-5-yl)methyl)pyrrolidine-3-carboxylic acid] |
| ≤ 10 | Cc1c(-c2nc3cc(CN4CC[C@H](C(=O)O)C4)cc(C#N)c3o2)cccc1-c1cccc(Nc2nccc3cc(CN4CC[C@H](O)C4)cnc23)c1Cl [Example 33, (S)-1-((2-(2′-chloro-3′-(3-(((S)-3-hydroxypyrrolidin-1-yl)methyl)-1,7-naphthyridin-8-ylamino)-2-methylbiphenyl-3-yl)-7-cyanobenzo[d]oxazol-5-yl)methyl)pyrrolidine-3-carboxylic acid] |
| ≤ 10 | Cc1c(-c2nc3cc(CN4CC[C@@](C)(C(=O)O)C4)cc(C#N)c3o2)cccc1-c1cccc(Nc2nccc3cc(CN4CC[C@H](O)C4)cnc23)c1Cl [Example 34, (R)-1-((2-(2′-chloro-3′-(3-(((S)-3-hydroxypyrrolidin-1-yl)methyl)-1,7-naphthyridin-8-ylamino)-2-methylbiphenyl-3-yl)-7-cyanobenzo[d]oxazol-5-yl)methyl)-3-methylpyrrolidine-3-carboxylic acid] |
| ≤ 10 | Cc1c(Nc2nccc3cc(CN4CC[C@H](O)C4)cnc23)cccc1-c1cccc(-c2nc3cc(CN4CCC[C@H]4C(=O)O)cc(C#N)c3o2)c1C [Example 35, (S)-1-((7-cyano-2-(3′-(3-(((S)-3-hydroxypyrrolidin-1-yl)methyl)-1,7-naphthyridin-8-ylamino)-2,2′-dimethylbiphenyl-3-yl)benzo[d]oxazol-5-yl)methyl)pyrrolidine-2-carboxylic acid] |
| ≤ 10 | Cc1c(NC(=O)c2nc3c(n2C)CCN(C)C3)cccc1-c1cccc(-c2nc3cc(CN4CC[C@H](C(=O)O)C4)cc(C#N)c3o2)c1C [Example 36, (S)-1-((7-cyano-2-(3′-(1,5-dimethyl-4,5,6,7-tetrahydro-1H-imidazo[4,5-c]pyridine-2-carboxamido)-2,2′-dimethylbiphenyl-3-yl)benzo[d]oxazol-5-yl)methyl)pyrrolidine-3-carboxylic acid] |
| ≤ 10 | CCN1CCc2c(nc(C(=O)Nc3cccc(-c4cccc(-c5nc6cc(CN7CC[C@H](C(=O)O)C7)cc(C#N)c6o5)c4C)c3C)n2C)C1 [Example 37, (S)-1-((7-cyano-2-(3′-(5-ethyl-1-methyl-4,5,6,7-tetrahydro-1H-imidazo[4,5-c]pyridine-2-carboxamido)-2,2′-dimethylbiphenyl-3-yl)benzo[d]oxazol-5-yl)methyl)pyrrolidine-3-carboxylic acid] |
| ≤ 10 | Cc1c(NC(=O)c2nc3c(n2C)CCN(C[C@H](C)O)C3)cccc1-c1cccc(-c2nc3cc(CN4CC[C@H](C(=O)O)C4)cc(C#N)c3o2)c1C [Example 41, (S)-1-((7-cyano-2-(3′-(5-((S)-2-hydroxypropyl)-1-methyl-4,5,6,7-tetrahydro-1H-imidazo[4,5-c]pyridine-2-carboxamido)-2,2′-dimethylbiphenyl-3-yl)benzo[d]oxazol-5-yl)methyl)pyrrolidine-3-carboxylic acid] |
| ≤ 10 | CCN(CCO)C1CCN(c2cccc(-c3cccc(-c4nc5cc(CN6CC[C@@H](C(=O)O)C6)cc(C#N)c5o4)c3C)c2Cl)CC1 [Example 48, (R)-1-((2-(2′-chloro-3′-(4-(ethyl(2-hydroxyethyl)amino)piperidin-1-yl)-2-methylbiphenyl-3-yl)-7-cyanobenzo[d]oxazol-5-yl)methyl)pyrrolidine-3-carboxylic acid] |

Source: patent publication US10308644B2, “Heterocyclic compounds as immunomodulators” (Incyte Corporation, priority 2016, dated 2019)
